The text below walks through data of paper PMC2933614, “Quantitative in vitro and in vivo pharmacological profile of CE-178253, a potent and selective cannabinoid type 1 (CB1) Receptor Antagonist” (BMC Pharmacology, 2010).

The nature of data set [1]: Core body temperature. Format: in vivo, mouse. As to conditions: C57BL/6J mice, n = 5 per group. The protocol: In a separate study, core body temperature was measured in C57BL/6J mice.
Data set [2] deals with T1, brain CB1 receptor (Rattus norvegicus, UniProt P20272).
T1 construct: Brain homogenates were prepared by adding TME buffer to pre-weighed tissue; from tissue; host or cells: brain homogenate of Sprague Dawley rats dosed p.o
The data set is described as follows: Ex vivo brain receptor occupancy. Format: in vivo. The protocol: An ex vivo brain receptor occupancy assay was used to calculate the in vivo receptor occupancy of CE-178253 at selected doses. […] Brains were removed from the rats 2 hr after return of food. […] The homogenate was diluted to a concentration of 2 mg/mL using TME buffer. […] The plates were then covered and incubated for 90 min at room temperature on a plate shaker. Reactions were stopped by the addition of 100 μL ice cold 7.5% BSA in TME. The plates were aspirated then harvested onto GF/C filter plates (Perkin Elmer Life Sciences; Boston, MA) using ice-cold TME buffer. The filter plates had been pre-soaked in 50 μL 0.5% BSA in TME for 60 min. Filters were dried at room temperature for 30 min, after which 25 μL of Microscint™ (Perkin Elmer Life Sciences; Boston, MA) was added to each and the plates analyzed on a Microbeta counter. Care was taken in our assay to minimize drug-tissue dissociation by comparing binding in a time course and under various conditions. […] Experiments were run in triplicate with at least an n = 3 for each treatment group.

For data set [3], the target named is T2, human CB1 in CHO cells (Homo sapiens, UniProt P21554).
T2 construct: expressed in transfected cells
The data set is described as follows: GTPγ[35S] functional assay, antagonism of CP-55940 stimulation, Schild analysis. Format: biochemical. How it is done: GTPγ[^35S] binding assays were performed as described. GTPγ[^35S] binding assays were performed in a 96-well FlashPlate™ format in duplicate using 100 pM GTPγ[^35S] and 10 μg membrane per well in assay buffer composed of 50 mM Tris HCl (pH 7.4); 3 mM MgCl2 (pH 7.4); 10 mM MgCl2, 20 mM EGTA, 100 mM NaCl, 30 μM GDP, 0.1% BSA and the following protease inhibitors: 100 μg/ml bacitracin, 100 μg/ml benzamidine, 5 μg/ml aprotinin, and 5 μg/ml leupeptin. […] Assays were performed at 30°C for 1 hr. The FlashPlates™ were then centrifuged at 2000×g for 10 min. Stimulation of GTPγ[^35S] binding was then quantified using a Wallac Microbeta® [16].
Saturation and competition radioligand binding assays were used to characterize membranes prepared from human recombinant CB1 and CB2 and rat brain membranes.

A short description of data set [4]: Four day DIO rat food intake and body weight study. Format: in vivo. As to conditions: 4-day, DIO rats. How it is done:
Male 15 week old S-D rats which had been maintained on a high fat diet (Research Diets, D12079BM, 45% kcal from fat) for 10 weeks were selected for the DIO weight loss study. DIO rats were singly housed were acclimated to handling and dosing and two days of food intake were recorded to establish baseline food intake values before dosing was initiated. The heaviest animals were randomly sorted and assigned to treatment groups (n = 8 per group). The mean starting weight of all animals was 639 ± 8 g. Rats were dosed (2 mls/kg) with veh. or CE-178253 according to body weight. FI and BW were recorded daily.
DIO rats were treated once daily with veh. (0.5% MC) or CE-178253 at doses of 0.3 mg/kg p.o. or 1 mg/kg p.o. in a 4-day study (Figures 6A and 6B). […] The effects on FI were apparent after the first doses and sustained over the 4-day study period. […] In contrast, there was no change in weight in veh-treated rats. Initial and final body weights of veh-treated rats were 643 ± 15 g and 645 ± 14 g, respectively. Initial and final body weights of 0.3 mg/kg CE-178253-treated rats were 632 ± 11 g and 616 ± 12 g, respectively. Initial and final body weights of 1 mg/kg CE-178253-treated rats were 637 ± 11 g and 602 ± 11 g, respectively. A statistically significant difference in BW between veh and the 1 mg/kg dose was observed (p < 0.05).

Data set [5] is described as follows: Plasma to brain concentration ratios (brain impairment). Format: in vivo. The following applies: Sprague-Dawley, rat, brain and plasma (unbound and total), oral; mean ± SD over 0.3, 1, 3, 10 mg/kg p.o., n = 3 per dose; read-out: Ratios of unbound plasma and total plasma to unbound brain and total brain concentrations.
In data set [6] the test system is central CB1 receptor-driven responses. Also noted: method as in PMID 17630359. The following applies: cited from earlier work.

T2 sequence (P21554 whole entry): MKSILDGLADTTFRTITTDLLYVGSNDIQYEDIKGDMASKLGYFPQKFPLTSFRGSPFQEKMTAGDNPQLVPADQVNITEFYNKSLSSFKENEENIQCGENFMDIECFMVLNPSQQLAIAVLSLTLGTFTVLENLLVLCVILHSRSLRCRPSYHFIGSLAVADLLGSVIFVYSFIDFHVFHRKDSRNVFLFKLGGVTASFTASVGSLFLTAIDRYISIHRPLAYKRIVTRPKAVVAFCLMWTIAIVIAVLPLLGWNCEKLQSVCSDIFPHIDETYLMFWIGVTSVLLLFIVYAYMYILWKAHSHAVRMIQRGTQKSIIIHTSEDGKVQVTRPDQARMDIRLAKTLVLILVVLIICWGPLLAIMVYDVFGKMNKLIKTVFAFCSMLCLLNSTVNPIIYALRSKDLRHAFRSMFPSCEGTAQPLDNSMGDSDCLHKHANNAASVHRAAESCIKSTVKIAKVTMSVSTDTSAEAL
T1 sequence (P20272 whole entry): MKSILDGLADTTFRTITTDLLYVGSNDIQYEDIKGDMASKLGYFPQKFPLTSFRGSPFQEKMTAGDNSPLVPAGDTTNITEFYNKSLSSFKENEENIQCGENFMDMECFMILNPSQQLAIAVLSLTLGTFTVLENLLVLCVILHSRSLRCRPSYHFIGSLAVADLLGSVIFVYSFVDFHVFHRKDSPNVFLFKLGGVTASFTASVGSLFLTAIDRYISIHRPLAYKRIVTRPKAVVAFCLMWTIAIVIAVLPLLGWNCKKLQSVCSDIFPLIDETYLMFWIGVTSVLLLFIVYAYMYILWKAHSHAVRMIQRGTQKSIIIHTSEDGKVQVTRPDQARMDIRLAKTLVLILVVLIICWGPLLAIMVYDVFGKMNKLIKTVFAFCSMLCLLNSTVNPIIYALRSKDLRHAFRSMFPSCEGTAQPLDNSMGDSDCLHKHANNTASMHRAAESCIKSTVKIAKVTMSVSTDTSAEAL

The Kb is the affinity of an antagonist, worked out from how it opposes an agonist. The low end stands for a more potent antagonist, the high end for a less potent antagonist. In general, Ki refers to a measure of affinity in units of concentration, obtained from inhibition or displacement. On to `CCNC1(C(N)=O)CN(c2nc(C)nc3c(-c4ccc(Cl)cc4)c(-c4ccccc4Cl)nn23)C1` [CE-178253], for which the “Increase in core body temperature compared to veh” value in data set [1] (1 mg/kg) stood at 0.7 ± 0.3 °C; in data set [1] (3 mg/kg), 1.2 ± 0.3 °C. The “Receptor occupancy required for maximum efficacy” value in data set [2] (calculated, energy intake and expenditure models) is reported as 50-75%. The receptor occupancy at 0.3 mg/kg in data set [2] (rat, po, 0.3 mg/kg p.o., brains removed 2 hr after return of food, read-out: % Receptor Occupancy (mean ± S-D)) was determined as 27 ± 12%. In data set [2] (rat, po, 1 mg/kg p.o., brains removed 2 hr after return of food, read-out: % Receptor Occupancy (mean ± S-D)), the receptor occupancy at 1 mg/kg is 64 ± 2%. Also, the receptor occupancy at 3 mg/kg in data set [2] (rat, po, 3 mg/kg p.o., brains removed 2 hr after return of food, read-out: % Receptor Occupancy (mean ± S-D)) came out at 78 ± 6%. Also, the receptor occupancy at 10 mg/kg in data set [2] (rat, po, 10 mg/kg p.o., brains removed 2 hr after return of food, read-out: % Receptor Occupancy (mean ± S-D)) worked out at 82 ± 2%. Further, in data set [3] (GTPγ[35S] assay), the Kb was determined as 0.63 nM. The compound further yielded a Slope in data set [3] (GTPγ[35S] functional assay, Schild slope) of 0.83. Besides, the Ki in data set [3] (inhibition of CP-55940-stimulated GTPγ[35S] binding, read-out: Antagonist Ki, GTPγ[35S] functional assay) came out at 0.07 ± 0.01 nM. The “Decrease in body weight compared to veh” value in data set [4] (0.3 mg/kg p.o. once daily) worked out at 3.3%; in data set [4] (1 mg/kg p.o. once daily), 5.9%. Moreover, the Final body weight in data set [4] (0.3 mg/kg, initial 632 ± 11 g) is 616 ± 12 g; in data set [4] (1 mg/kg, initial 637 ± 11 g) it was 602 ± 11 g. In data set [5], the Plasma-to-brain concentration ratio at […] came to 2.9 ± 0.25. For the same compound, the “Effect on CP-55940 responses in all four components of the tetrad” value in data set [6] was “dose-dependently reversed”.
